pIC50: −log10 of the molar value.
Target: T1, TNKS2 (Homo sapiens, UniProt Q9H2K2)
T1 sequence (Q9H2K2 1-1166): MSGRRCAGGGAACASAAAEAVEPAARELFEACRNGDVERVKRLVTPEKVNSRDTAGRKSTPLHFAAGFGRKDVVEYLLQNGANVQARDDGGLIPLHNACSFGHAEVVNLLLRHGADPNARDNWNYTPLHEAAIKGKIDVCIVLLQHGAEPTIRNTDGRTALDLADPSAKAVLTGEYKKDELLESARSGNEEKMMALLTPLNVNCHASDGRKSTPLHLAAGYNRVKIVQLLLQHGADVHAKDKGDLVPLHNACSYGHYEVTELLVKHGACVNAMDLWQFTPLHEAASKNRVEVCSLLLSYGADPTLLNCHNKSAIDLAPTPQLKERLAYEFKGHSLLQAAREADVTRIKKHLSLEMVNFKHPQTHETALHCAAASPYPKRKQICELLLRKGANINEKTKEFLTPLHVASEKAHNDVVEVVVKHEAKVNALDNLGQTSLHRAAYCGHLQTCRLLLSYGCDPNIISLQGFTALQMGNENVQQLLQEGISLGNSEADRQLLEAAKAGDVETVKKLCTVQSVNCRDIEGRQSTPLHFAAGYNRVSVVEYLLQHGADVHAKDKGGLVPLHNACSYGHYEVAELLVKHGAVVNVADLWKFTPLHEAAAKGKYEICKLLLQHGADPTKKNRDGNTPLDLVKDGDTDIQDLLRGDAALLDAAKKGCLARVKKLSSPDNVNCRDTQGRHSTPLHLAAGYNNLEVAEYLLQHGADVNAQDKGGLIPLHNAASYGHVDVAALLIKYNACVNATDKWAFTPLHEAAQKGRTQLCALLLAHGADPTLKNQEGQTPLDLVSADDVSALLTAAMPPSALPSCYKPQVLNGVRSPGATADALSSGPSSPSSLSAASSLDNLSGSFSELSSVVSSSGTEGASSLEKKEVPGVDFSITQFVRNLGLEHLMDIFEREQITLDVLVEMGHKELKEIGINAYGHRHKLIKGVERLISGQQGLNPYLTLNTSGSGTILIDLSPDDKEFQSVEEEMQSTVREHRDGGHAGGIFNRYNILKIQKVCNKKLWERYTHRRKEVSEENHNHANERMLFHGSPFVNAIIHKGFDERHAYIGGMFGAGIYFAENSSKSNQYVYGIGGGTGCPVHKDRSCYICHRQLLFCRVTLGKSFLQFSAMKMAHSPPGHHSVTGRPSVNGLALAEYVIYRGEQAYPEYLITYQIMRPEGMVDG
Assay: Modified TNKS2 Assay 3 (BPS kit #80578, biotin-NAD+, 96 well)
Assay type: biochemical
Conditions: human TNKS2, BPS kit #80578, 96 well
Protocol: The potency of the compounds against human TNKS2 according to the invention was assessed using a commercially available biotin/streptavidin binding assay kits from BPS Bioscience, San Diego, USA (Catalog #80578 for TNKS2). The incorporation of a biotin-labeled NAD+ during the […] catalyzed ribosylation of a suitable protein substrate was detected using with a streptavidin-HRP coupled chemi-luminescent readout. The intensity of the readout signal is proportional to the incorporated NAD^+. Inhibition of TNKS2 leads to a decreased incorporation of NAD^+ and consequently to a lower readout signal intensity in the corresponding TNKS2 assays. The concentration of a test compound that inhibits the enzyme activity by 50% (corresponds to half of the normed readout signal intensity) is reported as IC50. The assay conducted in a 96 well MTP format according to the manufacturer's protocol and using a BMG Pherastar MTP reader [BMG-Labtech, Offenburg, Germany].

SMILES | pIC50
CNC(=O)c1nc[nH]c1C(=O)Nc1ccc(NC(=O)c2ccc(C)cc2Cl)cc1 [Example 244, N^5-{4-[(2-chloro-4-methylbenzoyl)amino]phenyl}-N^4-methyl-1H-imidazole-4,5-dicarboxamide] | 7.52
CNC(=O)c1nc[nH]c1C(=O)Nc1ccc(NC(=O)c2c(F)cc(F)cc2Cl)cc1 [Example 118, N^5-{4-[(2-chloro-4,6-difluorobenzoyl)amino]phenyl}-N^4-methyl-1H-imidazole-4,5-dicarboxamide] | 6.64
CNC(=O)c1nc[nH]c1C(=O)Nc1ccc(NC(=O)c2ccc(F)cc2Cl)cc1 [Example 12, N^5-{4-[(2-chloro-4-fluorobenzoyl)amino]phenyl}-N^4-methyl-1H-imidazole-4,5-dicarboxamide] | 7.22
CNC(=O)c1nc[nH]c1C(=O)Nc1ccc(NC(=O)c2cc(F)c(F)cc2Cl)cc1 [Example 242, N^5-{4-[(2-chloro-4,5-difluorobenzoyl)amino]phenyl}-N^4-methyl-1H-imidazole-4,5-dicarboxamide] | 6.92
COCCNC(=O)c1[nH]cnc1C(=O)Nc1ccc(NC(=O)c2ccc(F)cc2Cl)cc1 [Example 130, N^4-{4-[(2-chloro-4-fluorobenzoyl)amino]phenyl}-N^5-(2-methoxyethyl)-1H-imidazole-4,5-dicarboxamide] | 6.77
NC(=O)c1nc[nH]c1C(=O)Nc1ccc(NC(=O)c2ccc(F)cc2Cl)cc1 [Example 121] | 6.96
O=C(Nc1ccc(NC(=O)c2nc[nH]c2C(=O)NC2CCOC2)cc1)c1ccc(F)cc1Cl (centres unmarked) [Example 236, N^4-{4-[(2-chloro-4-fluorobenzoyl)amino]phenyl}-N^5-(tetrahydrofuran-3-yl)-1H-imidazole-4,5-dicarboxamide] | 7.10
CNC(=O)c1nc[nH]c1C(=O)Nc1ccc(NC(=O)c2ccc(F)cc2Cl)nc1 [Example 16, N^5-{6-[(2-chloro-4-fluorobenzoyl)amino]pyridin-3-yl}-N^4-methyl-1H-imidazole-4,5-dicarboxamide] | 7.40
O=C(Nc1ccc(NC(=O)c2[nH]cnc2C(=O)NCC(F)(F)F)cc1)c1ccc(F)cc1Cl [Example 30, N^4-{4-[(2-chloro-4-fluorobenzoyl)amino]phenyl}-N^5-(2,2,2-trifluoroethyl)-1H-imidazole-4,5-dicarboxamide] | 6.89
CNC(=O)c1nc[nH]c1C(=O)Nc1ccc(NC(=O)c2cc(OC)c(OC)cc2Cl)cc1 [Example 240, N^5-{4-[(2-chloro-4,5-dimethoxybenzoyl)amino]phenyl}-N^4-methyl-1H-imidazole-4,5-dicarboxamide] | 7.52

Stronger by pIC50, values ahead:

pIC50 | SMILES
> 9.30 | O=C(NCCN1CCCCC1)c1nc[nH]c1C(=O)Nc1ccc(NC(=O)c2c(F)cc(F)cc2Cl)cc1 [Example 119, N^5-{4-[(2-chloro-4,6-difluorobenzoyl)amino]phenyl}-N^4-[2-(piperidin-1-yl)ethyl]-1H-imidazole-4,5-dicarboxamide]
9.00 | CC1CCN(CCNC(=O)c2nc[nH]c2C(=O)Nc2ccc(NC(=O)c3ccc(F)cc3Cl)cc2)CC1 [Example 126, N^5-{4-[(2-chloro-4-fluorobenzoyl)amino]phenyl}-N^4-[2-(4-methylpiperidin-1-yl)ethyl]-1H-imidazole-4,5-dicarboxamide]
9.05 | O=C(Nc1ccc(NC(=O)c2nc[nH]c2C(=O)NCCN2CCCC(F)C2)cc1)c1ccc(F)cc1Cl (centres unmarked) [Example 226, N^4-{4-[(2-chloro-4-fluorobenzoyl)amino]phenyl}-N^5-[2-(3-fluoropiperidin-1-yl)ethyl]-1H-imidazole-4,5-dicarboxamide]
8.52 | CC1CCCN(CCNC(=O)c2[nH]cnc2C(=O)Nc2ccc(NC(=O)c3ccc(F)cc3Cl)cc2)C1 (centres unmarked) [Example 208, N^4-{4-[(2-chloro-4-fluorobenzoyl)amino]phenyl}-N^5-[2-(3-methylpiperidin-1-yl)ethyl]-1H-imidazole-4,5-dicarboxamide]

Reference: patent US9884063B2, “Amido-substituted azole compounds” (Bayer Pharma Aktiengesellschaft, priority 2014, dated 2018)
